Converted amounts (≈) assume the structure as drawn. Like-named read-outs stand apart in the source and are kept apart here.
Assays:
[1] = tested on: methicillin-resistant Staphylococcus aureus (ATCC 43300); test: microbe, parasite or virus in culture; type: cell-based; details: 18 h
Description: (§1) Antibacterial activity was determined for the title compounds in various Gram-negative and Gram-positive bacterial strains, namely Klebsiella pneumoniae, Escherichia coli (ATCC 25922), Staphylococcus aureus (272123), methicillin-resistant Staphylococcus aureus (ATCC 43300), and Enterococcus faecalis (ATCC 29212). The stock solutions of the tested compounds were prepared in DMSO at a 5 mM concentration. […] All stock solutions were diluted in 100 μL of Mueller Hinton Broth, and then two-fold serial dilutions were performed. Then, a 10^–4 dilution of an overnight bacterial culture in 100 μL of medium was added to each well, except for the medium control wells. The highest concentration of the compounds in the tested samples was 100 μM. The plates were incubated at 37 °C for 18 h. After that, the MIC values were determined by visual inspection.

[2] = tested on: Enterococcus faecalis (ATCC 29212); test: Antibacterial MIC, broth dilution; type: cell-based
Description: as §1

[3] = tested on: Staphylococcus aureus (272123); test: Antibacterial MIC, broth dilution; type: cell-based; details: 18 h
Description: as §1

Klebsiella pneumoniae = test: Antibacterial MIC, broth dilution; type: cell-based; details: 18 h
Description: as §1

[4] = tested on: Escherichia coli (ATCC 25922); test: Antibacterial MIC, broth dilution; type: cell-based
Description: as §1

[5] = tested on: Colo 205 human colon cancer cell line; test: In vitro cytotoxicity, MTT; type: cell-based; details: Colo 205, 72 h exposure
Description: (§2) Cell culture reagents were obtained from Merck, and plasticware was obtained from Sarstedt. Human colon adenocarcinoma cell line Colo 205 (ATCC CCL-222) and MCF7 (ATCC HTB-22) breast cancer cells were purchased from LGC Promochem. Cancer cells were cultured in RPMI 1640 medium supplemented with 10% heat-inactivated fetal bovine serum, 2 mM L-glutamine, and 1 mM sodium pyruvate and buffered with 100 mM HEPES. The cells were incubated at 37 °C in a 5% CO2, 95% air atmosphere and were detached with Trypsin-Versene (EDTA) solution for 5 min at 37 °C.
(§3) The tested ligands were dissolved in DMSO, and the stock solutions (5 mM) were diluted in complete culture medium. Two-fold serial dilutions of compounds were made in 100 μL of the medium, horizontally. The semiadherent colon adenocarcinoma cells were treated with Trypsin-Versene (EDTA) solution. They were adjusted to a density of 1 × 10^4 cells in 100 μL of RPMI 1640 medium and were added to each well, with the exception of the medium control wells. The final volume of the wells containing compounds and cells was 200 μL. The plates containing the cells were incubated at 37 °C for 72 h; at the end of the incubation period, 20 μL of MTT solution (5 mg/mL) was added to each well. After incubation at 37 °C for 4 h, 100 μL of sodium dodecyl sulfate solution (10% in 0.01 M HCl) was added to each well, and the plates were further incubated at 37 °C overnight. Cell growth was determined by measuring the optical density (OD) at 540 and 630 nm with a Multiskan EX plate reader (Thermo Labsystems).
(§4) Curves for the data obtained on cancer cells were fitted by GraphPad Prism software using the sigmoidal dose–response model (comparing variable and fixed slopes). The IC50 values were always obtained from at least three independent experiments.

[6] = tested on: MCF7 human breast cancer cell line; test: In vitro cytotoxicity, MTT; type: cell-based; details: Homo sapiens; MCF7, 72 h exposure
Description: as §2, §3, §4

calf thymus-DNA (CT-DNA) [7] = test: Viscometry with CT-DNA; type: binding; details: compound/DNA ratios 0.0 to 1.0; 5 mM Tris, 100 mM NaCl, pH 7.40, 25.0 °C
Description: […] Then, the samples were incubated at 37 °C and with constant shaking at 300 rpm for 10 min and 1 h. After each incubation, the viscosity was measured at a constant temperature of 25.0 ± 0.2 °C in a vibrational viscometer. The relative viscosity was calculated by taking the mean values of three replicate measurements, and the values were represented by plotting the values of relative viscosity of CT-DNA (η/η0)^1/3 against 1/R.

calf thymus-DNA (CT-DNA) [8] = test: UV-vis titration with CT-DNA; type: binding; details: complex/DNA ratio 0 to 0.79; 5 mM Tris, 50 mM NaCl, pH 7.40, 25 °C
Description: To investigate the potential binding ability of the palladium complexes (2) and (3) with DNA, UV–vis titrations (240 to 700 nm) were performed at room temperature. During the titrations, the CT-DNA concentration (5.08 × 10^–5 M) was kept constant, while the concentration of each complex (0 to 2.00 × 10^–5 M) was varied. The changes in the typical absorbance of CT-DNA at 260 nm were monitored after equilibration (10 min) and after 1 h of incubation at 37 °C. […] Control experiments with DMSO were performed, and no changes in the CT-DNA spectrum were observed.

glutathione (GSH) = test: Reaction with glutathione followed by UV-vis; details: 30-fold GSH, ~20 μM complex, 60% (v/v) DMSO/phosphate buffer pH 7.4, 25.0 °C
Description: Reactions between the title compounds and GSH were also followed by UV–vis spectrophotometry under an inert atmosphere to overcome oxidation of GSH by air oxygen. Samples contained the metal complexes at low concentrations (∼20 μM) and were prepared using 60% (v/v) DMSO/phosphate buffer solution (pH 7.4) to avoid precipitation. The reactants were separated in the pockets of a tandem cuvette, followed by deoxygenation by argon bubbling. The separate solutions were mixed at 1:30 metal complex:GSH molar ratios, and UV–vis spectra were recorded. Argon was continuously passed over the sample during the whole measurement.

[9] = target: T1, hen egg white lysozyme (HEWL) (Gallus gallus, UniProt P00698); test: Reaction with lysozyme followed by UV-vis at 280 nm, pseudo-first-order kinetics; type: binding; details: metal:protein 3:1, 5 mM Tris/3% DMSO, 37 °C, absorbance at 280 nm
T1 construct: a model protein, namely HEWL (hen egg white lysozyme), was also studied; from tissue; host or cells: hen egg white (from the protein's name)
T1 sequence (P00698 19-147): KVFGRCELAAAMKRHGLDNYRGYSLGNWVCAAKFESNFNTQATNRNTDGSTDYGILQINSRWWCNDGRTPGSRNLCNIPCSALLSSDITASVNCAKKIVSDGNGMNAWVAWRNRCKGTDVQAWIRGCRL
Description: The interaction of complexes (2) and (3) with hen egg white lysozyme (HEWL) was investigated using a 10^–5 M solution of the protein. Lysozyme is a widely used model protein for studying the binding of potential metallodrugs. The sample preparation for this assay was carried out using the same protocol of the samples for the DNA interactions studies by UV–vis spectrophotometry. The integrity of the enzyme was checked in each experiment, with a comparison of fresh and incubated samples. UV–vis spectra were recorded before and after incubation with the complex (dissolved in 97% 5 mM Tris/3% DMSO) for 24 h at 37 °C. A metal to protein ratio of 3:1 was used for these studies, a ratio that affords similar results to 10:1 and eases the sample preparation. The experimental time-dependent profiles of the spectra were analyzed as pseudo-first-order reactions by plotting the variation of the absorbance as a function of time.

pBR322 plasmid DNA = test: Agarose gel electrophoresis mobility shift; type: binding; details: r i 0.01 to 0.20, 24 h, 37 °C
Description: Complexes (2) and (3) were incubated at 37 °C with a concentration of 0.0625 μg/μL pBR322 plasmid DNA at different concentrations expressed as r i = complex:DNA (base pair) ratio. The r i used was from 0.01 to 0.20, in a total volume of 20 μL. After an incubation period of 24 h, the mobility of the complex-treated pBR322 samples was analyzed by gel electrophoresis at 70 V in Tris/acetate/EDTA buffer. A control of pBR322 was also incubated, and a 1 kb ladder aliquot was loaded into lane 1 of the gel. The gel was stained with an ethidium bromide aqueous solution, and DNA bands were visualized with a UV-transilluminator UVITEC Cambridge UVIDOC HD2 instrument. The studies were performed with 3% (v/v) DMSO as the final solution.

Solubility observations = type: physicochemical; details: as observed; aqueous solution for HL
[10] = Spectrophotometric (UV-vis) pH titrations for proton dissociation constants; type: physicochemical; details: I = 0.10 M (KCl), 25.0 °C
Description: Spectrophotometric titrations were applied to study the equilibrium processes (proton dissociation and complex dissociation/formation) in DMSO/H2O mixtures due to the limited aqueous solubility of the compounds. The calibration of the electrode system was performed by strong acid–strong base pH-potentiometric titrations in 30% (v/v) and 60% (v/v) DMSO/H2O solvent mixtures at 25.0 ± 0.1 °C as described in our previous works. , KCl (0.1 M) was the supporting electrolyte to maintain constant ionic strength, which refers to the chloride ion concentration in blood plasma. […] The initial sample volume was 5 mL. Spectrophotometric titrations were performed in the pH range 1.8–12.5 for 30% (v/v) DMSO/H2O medium and 1.8–14.0 for 60% (v/v) DMSO/H2O medium. Prior to the titrations, purified argon was passed through the samples for approximately 10 min to remove CO2 traces, and argon was also passed over the samples during these measurements. The proton dissociation constants were calculated by using the computer program PSEQUAD.

[11] = n-Octanol/water and n-octanol/Tris buffer shake-flask partitioning; type: physicochemical
Description: The distribution coefficient values (D 7.4) of the compounds were determined by the traditional shake-flask method in n-octanol/buffered aqueous solution at pH 7.40 for 5 mM Tris HCl with 0.1 M KCl and at pH 7.4 at 25.0 ± 0.2 °C. The ligand and complexes were dissolved in n-octanol (presaturated by the aqueous buffer) because of the very low aqueous solubility. The aqueous buffer solution and n-octanol ratio was 1:1 due to the expected high lipophilicity of the compounds. First, samples were mixed with vertical rotation (∼20 rpm) for 3 h, and then the two phases were separated by centrifugation at 3000 rpm (∼1000g) for 3 min. After separation, UV–vis spectra of the compounds were recorded in both phases. Spectra of the n-octanol phases were compared to those of the original n-octanol stock solutions.
The distribution coefficient values were also determined using unbuffered water and octanol (also presaturated) with a ratio of 1:1.

[12] = Staphylococcus aureus, ATCC 43300 / MRSA
[13] = Enterococcus faecalis, ATCC29212, 18 h
[14] = Escherichia coli, ATCC25922, 18 h

## CNC(C)C1CCC(N)C(OC2C(N)CC(N)C(OC3OCC(C)(O)C(NC)C3O)C2O)O1 (stereo not drawn) [gentamicin, reference compound]
[1]; [12]
  MIC: > 10.5 µM
[2]; [13]
  MIC: 10.5 µM (≈ 5 µg/mL)
[3]; Staphylococcus aureus
  MIC: 10.5 µM (≈ 5 µg/mL)
Klebsiella pneumoniae; Klebsiella pneumoniae
  MIC: 2.62 µM (≈ 1.25 µg/mL)
[4]; [14]
  MIC: 5.24 µM (≈ 2.5 µg/mL)

## COc1cccc2c1C(=O)c1c(O)c3c(c(O)c1C2=O)C[C@@](O)(C(=O)CO)C[C@@H]3O[C@H]1C[C@H](N)[C@H](O)[C@H](C)O1 [Doxorubicin, reference compound]
[5]; Homo sapiens
  IC50: 158 ± 4 nM
[6]
  IC50: 128 ± 0.9 nM

## CC[n+]1c(-c2ccccc2)c2cc(N)ccc2c2ccc(N)cc21 [ethidium bromide]
Calf thymus-DNA (CT-DNA) [7]
  effect on relative viscosity of CT-DNA: increases the dynamic viscosity

## Chlorido(dimethyl sulfoxide)(1H-imidazole-4-carboxaldehyde-4N-p-chlorophenylthiosemicarbazonato)palladium(II) [(3)]
[5]
  IC50: 16200 ± 1180 nM
Calf thymus-DNA (CT-DNA) [8]
  change of CT-DNA absorption at 260 nm: absorption values of DNA–complex samples increase
[1]; S. aureus (MRSA), 37 °C
  MIC: > 100 µM
Glutathione (GSH)
  time to equilibrium of the reaction with GSH: ≤ 30 min
[9]
  observed rate constant k obs: (8.75 ± 0.09) × 10^–5 s^–1
[2]; E. faecalis, 18 h, 37 °C
  MIC: > 100 µM
[3]; S. aureus, 37 °C
  MIC: > 100 µM
Klebsiella pneumoniae; K. pneumoniae, 37 °C
  MIC: > 100 µM
[4]; E. coli, 18 h, 37 °C
  MIC: > 100 µM
pBR322 plasmid DNA
  effect on electrophoretic mobility of supercoiled pBR322 (pure form): small unwinding

## S=C(N/N=C/c1c[nH]cn1)Nc1ccc(Cl)cc1 [HL, 1H-Imidazole-4-carboxaldehyde(4N-p-chlorophenyl)thiosemicarbazone]
[5]; Homo sapiens
  IC50: 19100 ± 600 nM
[6]
  IC50: 2970 ± 320 nM
Solubility observations
  solubility: poor solubility
[1]; [12]
  MIC: 50 µM (≈ 14 µg/mL)
[10]; 30% (v/v) DMSO/H2O solvent mixture, 30% (v/v) DMSO/H2O, read-out: pKa1
  pKa: 4.38 ± 0.03
[10]; 30% (v/v) DMSO/H2O solvent mixture, 30% (v/v) DMSO/H2O, read-out: pKa2
  pKa: 10.96 ± 0.04
[10]; 60% (v/v) DMSO/H2O solvent mixture, 60% (v/v) DMSO/H2O, read-out: pKa1
  pKa: 3.81 ± 0.02
[10]; 60% (v/v) DMSO/H2O solvent mixture, 60% (v/v) DMSO/H2O, read-out: pKa2
  pKa: 11.12 ± 0.01
[10]; pure water (0% DMSO), predicted value, 0% DMSO (pure water), predicted value, read-out: pKa1
  pKa: 4.58
[10]; pure water (0% DMSO), predicted value, 0% DMSO (pure water), predicted value, read-out: pKa2
  pKa: 10.9
[11]; n-octanol/Tris HCl buffer, pH 7.4, n-octanol/5 mM Tris HCl with 0.1 M KCl, pH 7.40, 25.0 °C, read-out: log D o/t
  logD: 1.58
[11]; n-octanol/pure (unbuffered) water, 1:1, read-out: log D o/w
  logD: 0.9
[2]; [13]
  MIC: 100 µM (≈ 28 µg/mL)
[3]; Staphylococcus aureus
  MIC: 100 µM (≈ 28 µg/mL)
Klebsiella pneumoniae; Klebsiella pneumoniae
  MIC: > 100 µM
[4]; [14]
  MIC: 25 µM (≈ 6.99 µg/mL)

## O=C(O)c1cn(C2CC2)c2cc(N3CCNCC3)c(F)cc2c1=O [ciprofloxacin, reference compound]
[1]; [12]
  MIC: > 15.1 µM
[2]; [13]
  MIC: 1.89 µM (≈ 0.625 µg/mL)
[3]; Staphylococcus aureus
  MIC: 1.89 µM (≈ 0.625 µg/mL)
Klebsiella pneumoniae; Klebsiella pneumoniae
  MIC: 0.235 µM (≈ 0.078 µg/mL)
[4]; [14]
  MIC: 0.235 µM (≈ 0.078 µg/mL)

From publication PMC12648656, “Palladium(II) Complexes with Noncovalent Interactions with DNA: Solution Speciation Controlled by Solvent Identity, pH, and Concentration” (Inorganic Chemistry, 2025)
